Measured values from patent US12209144B2, “Cyclic peptides as proprotein convertase subtilisin/kexin type 9 (PCSK9) inhibitors for the treatment of metabolic disorders” (Novartis AG, priority 2018, dated 2025).
Bridge positions count the residues as written; N and C are the ends. Square brackets hold non-standard residues; d marks the D form. Peptide text beside a SMILES is read from it. ξ: configuration not given here. Phe(3,4-Cl2) = N[C@@H](Cc1ccc(Cl)c(Cl)c1)C(=O)O; Bip = N[C@@H](Cc1ccc(-c2ccccc2)cc1)C(=O)O; Phe(4-Cl) = N[C@@H](Cc1ccc(Cl)cc1)C(=O)O; hSer = N[C@@H](CCO)C(=O)O; NMeA = CN[C@@H](C)C(=O)O; ξD = NC(CC(=O)O)C(=O)O

molecular target: human PCSK9 (Homo sapiens, UniProt Q8NBP7); test: PCSK9 ligand binding assay (TR-FRET): interference with binding of human PCSK9 to human LDLR; settings: PCSK9 FRET assay, efficacy (Amax); 0% = DMSO, 100% = 1 uM unlabeled human PCSK9
Sequence (Q8NBP7 153-692): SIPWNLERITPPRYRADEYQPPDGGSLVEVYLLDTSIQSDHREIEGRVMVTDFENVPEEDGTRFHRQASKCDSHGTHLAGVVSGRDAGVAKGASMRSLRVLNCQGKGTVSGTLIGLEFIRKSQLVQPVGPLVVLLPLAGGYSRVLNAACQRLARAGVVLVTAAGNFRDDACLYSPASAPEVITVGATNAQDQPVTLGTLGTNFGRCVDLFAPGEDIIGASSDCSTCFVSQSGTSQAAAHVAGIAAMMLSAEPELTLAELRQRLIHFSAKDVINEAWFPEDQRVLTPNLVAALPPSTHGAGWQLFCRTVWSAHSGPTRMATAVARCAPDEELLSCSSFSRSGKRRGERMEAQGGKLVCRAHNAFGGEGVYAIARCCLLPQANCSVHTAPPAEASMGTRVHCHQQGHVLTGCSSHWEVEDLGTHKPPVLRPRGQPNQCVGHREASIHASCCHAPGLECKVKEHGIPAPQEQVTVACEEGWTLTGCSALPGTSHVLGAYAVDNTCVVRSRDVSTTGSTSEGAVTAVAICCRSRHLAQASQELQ
Sequence (Q8NBP7 31-152 partner limits assumed): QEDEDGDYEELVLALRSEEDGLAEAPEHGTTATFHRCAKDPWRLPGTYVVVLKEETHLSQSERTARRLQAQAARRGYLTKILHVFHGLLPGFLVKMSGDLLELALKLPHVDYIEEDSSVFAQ
Experimental: The activity of cyclic polypeptides according to the disclosure as PCSK9 can be assessed using a time resolved fluorescence resonance energy transfer (TR-FRET) assay. This time resolved fluorescence resonance energy transfer (TR-FRET) assay measures the ability of a cyclic polypeptides of the disclosure to interfere with the binding of human PCSK9 to human LDLR, providing measures of both potency (IC50) and efficacy (Amax).
Solutions of varying concentrations are prepared by diluting a cyclic polypeptide of the disclosure in dimethylsulfoxide (DMSO) and the resulting solutions are pipetted into a plate. DMSO is used as a negative control. An intermediate plate is prepared in by transferring a known amount of each polypeptide solution and of the control from the compound plate into a corresponding well containing assay buffer and mixing thoroughly. A third plate is then prepared to be used for the assay by adding Human PCSK9 Alexa Fluor 647, followed by a known amount of each solution from the intermediate plate. Unlabeled human PCSK9 in assay buffer containing DMSO is used as a positive control for the assay. Following incubation, Human LDLR extracellular domain-Europium Kryptate is added to each well of the assay plate and the resulting mixture is incubated for an additional period of time. The TR-FRET signal is measured and the FRET ratio (FRET/Europium) is used to calculate the IC50 and Amax of the cyclic polypeptides.
The PCSK9 binding of the cyclic polypeptides of the disclosure were measured using a time resolved fluorescence resonance energy transfer (TR-FRET) assay. This time resolved fluorescence resonance energy transfer (TR-FRET) assay measures the ability of a cyclic polypeptide of the disclosure to interfere with the binding of human PCSK9 to human LDLR, providing measures of both potency (IC50) and efficacy (Amax).
• Human PCSK9 • Human PCSK9 Alexa Fluor 647 • Human LDLR extracellular domain-Europium Kryptate • Proxi plate-low volume assay plate (PerkinElmer #6008280) • Greiner V-bottom (Greiner BioOne #781280) • Assay Buffer • 20 mM HEPES, pH 7.5 • 150 mM NaCl • 1 mM CaCl2 • 0.01% v/v Tween20 • 0.01% w/v BSA
A master compound plate was prepared in a Greiner V bottom plate by diluting cyclic polypeptides of the disclosure in dimethylsulfoxide to the correct concentration for the desired top concentration based on the desired final concentration: for a 30 uM final concentration the master plate concentration is 1.5 mM (68 uL DMSO+12 uL 10 mM of a cyclic polypeptide of the disclosure), for a 10 uM final concentration the master plate concentration is 0.5 mM (76 uL DMSO+4 uL 10 mM of a cyclic polypeptide of the disclosure), for a 3 uM final concentration the master plate concentration is 150 uM (69 uL DMSO+1 uL 10 mM a cyclic peptide of the disclosure). These solutions were pipetted into columns 1 and 11 of the compound plate. Threefold serial dilutions were generated in columns 2-10 and 12-20 of the compound plate by transferring 10 uL into 20 μL of DMSO. Columns 21 and 22 of the compound plate were negative controls containing DMSO alone.
An intermediate plate was generated in a Greiner V bottom plate by transferring 8 uL from each well of the master plate into a corresponding well containing 92 μL of assay buffer and mixing thoroughly.
A Proxi plate-low volume assay plate was used for the assay. To all wells of the plate was added 10 μL of 16 nM Human PCSK9 Alexa Fluor 647, followed by 5 uL from the intermediate plate. […] Following a 30 minute incubation, 5 μL of 4 nM Human LDLR extracellular domain-Europium Kryptate was added and the mixture was incubated for an additional 2 hours.
The TR-FRET signal was measured on an EnVision or PheraStar instrument with a […] delay, 330 nm excitation and 665 nm emission (FRET), and 330 nm excitation and 615 nm (Europium). The FRET ratio (FRET/Europium) was used for calculations. […]

Point of comparison: `CC(C)[C@@H]1NC(=O)[C@H](Cc2ccccc2)NC(=O)CSC[C@@H](C(N)=O)NC(=O)[C@@H]2CCCN2C(=O)[C@H](C)NC(=O)[C@@H]2CCCN2C(=O)[C@H](C)N(C)C(=O)[C@H](Cc2ccc(Cl)cc2)NC(=O)[C@H](C)N(C)C(=O)[C@H](Cc2ccccc2)NC(=O)[C@H]([C@@H](C)O)NC(=O)[C@H]([C@@H](C)O)NC(=O)[C@@H]2CCCN2C1=O` [Example 2-1, (6S,8aS,14S,17S,20S,23S,26S,29S,31aS,37S,40S,46R,48aS)-23,40-dibenzyl-17-(4-chlorobenzyl)-26,29-bis((R)-1-hydroxyethyl)-37-isopropyl-6,14,15,20,21-pentamethyl-5,8,13,16,19,22,25,28,31,36,39,42,48-tridecaoxohexatetracontahydro-13H-tripyrrolo[1,2-e1:1′,2′-j:1″,2″-k1][1]thia[4,7,10,13,16,19,22,25,28,31,34,37,40]tridecaazacyclodo-tetracontine-46-carboxamide] ({CH2CO}-FVPTTF[NMeA][Phe(4-Cl)][NMeA]PAPC-NH2; thioether N-13), Maximum % inhibition 50%. Against it:
- CC(C)[C@@H]1NC(=O)[C@H](Cc2ccccc2)NC(=O)CSC[C@@H](C(=O)NCC(N)=O)NC(=O)[C@@H]2CCCN2C(=O)[C@H](C)NC(=O)[C@H](CCCCN)NC(=O)[C@H](C)N(C)C(=O)[C@H](Cc2ccc(-c3ccccc3)cc2)NC(=O)[C@H](C)N(C)C(=O)[C@H](Cc2ccccc2)NC(=O)[C@H]([C@@H](C)O)NC(=O)[C@H]([C@@H](C)O)NC(=O)[C@H](CC(N)=O)NC1=O [Example 1-23, Ac*-F-V-N-T-T-F-(N-Me)A-B-(N-Me)A-K-A-P-C*-G-NH2] ({CH2CO}-FVNTTF[NMeA][Bip][NMeA]KAPCG-NH2; thioether N-13) — lower, 36%
- CC(C)[C@@H]1NC(=O)[C@H](Cc2ccccc2)NC(=O)CSC[C@@H](C(=O)NCC(N)=O)NC(=O)[C@@H]2CCCN2C(=O)[C@H](C)NC(=O)[C@H](CCC(=O)O)NC(=O)[C@H](C)N(C)C(=O)[C@H](Cc2ccc(-c3ccccc3)cc2)NC(=O)[C@H](C)N(C)C(=O)[C@H](Cc2ccccc2)NC(=O)[C@H]([C@@H](C)O)NC(=O)[C@H]([C@@H](C)O)NC(=O)[C@H](CO)NC1=O [Example 1-24, Ac*-F-V-S-T-T-F-(N-Me)A-B-(N-Me)A-E-A-P-C*-G-NH2] ({CH2CO}-FVSTTF[NMeA][Bip][NMeA]EAPCG-NH2; thioether N-13) — higher, 70%
- CC(C)[C@@H]1NC(=O)[C@H](Cc2ccccc2)NC(=O)CSC[C@@H](C(=O)NCC(N)=O)NC(=O)[C@@H]2CCCN2C(=O)[C@H](CO)NC(=O)[C@H](CCC(=O)O)NC(=O)[C@H](C)N(C)C(=O)[C@H](Cc2ccc(-c3ccccc3)cc2)NC(=O)[C@H](C)N(C)C(=O)[C@H](Cc2ccc(-c3ccccc3)cc2)NC(=O)[C@H]([C@@H](C)O)NC(=O)[C@H]([C@@H](C)O)NC(=O)[C@H](CO)NC1=O [Example 1-25, Ac*-F-V-S-T-T-B-(N-Me)A-B-(N-Me)A-E-S-P-C*-G-NH2] ({CH2CO}-FVSTT[Bip][NMeA][Bip][NMeA]ESPCG-NH2; thioether N-13) — higher, 68%
- CC(C)[C@@H]1NC(=O)[C@H](Cc2ccccc2)NC(=O)CSC[C@@H](C(=O)NCC(N)=O)NC(=O)[C@@H]2CCCN2C(=O)[C@H](CO)NC(=O)[C@H](CCC(=O)O)NC(=O)[C@H](C)N(C)C(=O)[C@H](Cc2ccc(Cl)c(Cl)c2)NC(=O)[C@H](C)N(C)C(=O)[C@H](Cc2ccc(-c3ccccc3)cc2)NC(=O)[C@H]([C@@H](C)O)NC(=O)[C@H]([C@@H](C)O)NC(=O)[C@H](CC(=O)O)NC1=O [Example 1-26, Ac*-F-V-D-T-T-B-(N-Me)A-(3,4-diCl)F-(N-Me)A-E-S-P-C*-G-NH2] ({CH2CO}-FVDTT[Bip][NMeA][Phe(3,4-Cl2)][NMeA]ESPCG-NH2; thioether N-13) — higher, 84%
- C[C@@H]1NC(=O)[C@H](C)N(C)C(=O)[C@H](Cc2ccc(-c3ccccc3)cc2)NC(=O)[C@H](C)N(C)C(=O)[C@H](Cc2ccccc2)NC(=O)[C@H]([C@@H](C)O)NC(=O)[C@H]([C@@H](C)O)NC(=O)[C@H](CC(N)=O)NC(=O)[C@H](CCC(=O)O)NC(=O)[C@H](Cc2ccccc2)NC(=O)CSC[C@@H](C(=O)NCC(N)=O)NC(=O)[C@@H]2CCCN2C(=O)[C@H](CO)NC1=O [Example 1-27, Ac*-F-E-N-T-T-F-(N-Me)A-B-(N-Me)A-A-S-P-C*-G-NH2] ({CH2CO}-FENTTF[NMeA][Bip][NMeA]ASPCG-NH2; thioether N-13) — higher, 55%
- CC(C)[C@@H]1NC(=O)[C@H](Cc2ccccc2)NC(=O)CSC[C@@H](C(N)=O)NC(=O)[C@@H]2CCCN2C(=O)[C@H](C)NC(=O)C(CC(=O)O)NC(=O)[C@H](C)N(C)C(=O)[C@H](Cc2ccc(Cl)cc2)NC(=O)[C@H](C)N(C)C(=O)[C@H](Cc2ccccc2)NC(=O)[C@H]([C@@H](C)O)NC(=O)[C@H]([C@@H](C)O)NC(=O)[C@@H]2CCCN2C1=O (stereo partly drawn) [Example 2-2, Ac*-F-V-P-T-T-F-(N-Me)A-(p-Cl)F-(N-Me)A-D-A-P-C*-NH2] ({CH2CO}-FVPTTF[NMeA][Phe(4-Cl)][NMeA][ξD]APC-NH2; thioether N-13) — higher, 72%
- CC(C)[C@@H]1NC(=O)[C@H](Cc2ccccc2)NC(=O)CSC[C@@H](C(N)=O)NC(=O)[C@@H]2CCCN2C(=O)[C@H](C)NC(=O)C(CC(=O)O)NC(=O)[C@H](C)N(C)C(=O)[C@H](Cc2ccc(Cl)cc2)NC(=O)[C@H](C)N(C)C(=O)[C@H](Cc2ccccc2)NC(=O)[C@H]([C@@H](C)O)NC(=O)[C@H]([C@@H](C)O)NC(=O)[C@H](CCO)NC1=O (stereo partly drawn) [Example 2-3, Ac*-F-V-HomoSer-T-T-F-(N-Me)A-(p-Cl)F-(N-Me)A-D-A-P-C*-NH2] ({CH2CO}-FV[hSer]TTF[NMeA][Phe(4-Cl)][NMeA][ξD]APC-NH2; thioether N-13) — higher, 75%
- CC(C)[C@@H]1NC(=O)[C@H](Cc2ccccc2)NC(=O)CSC[C@@H](C(N)=O)NC(=O)[C@@H]2CCCN2C(=O)[C@H](CCCNC(=N)N)NC(=O)[C@H](CC(=O)O)NC(=O)[C@H](C)N(C)C(=O)[C@H](Cc2ccc(-c3ccccc3)cc2)NC(=O)[C@H](C)N(C)C(=O)[C@H](Cc2ccc(-c3ccccc3)cc2)NC(=O)[C@H]([C@@H](C)O)NC(=O)[C@H]([C@@H](C)O)NC(=O)[C@H](CO)NC1=O [Example 2-4, Ac*-F-V-S-T-T-B-(N-Me)A-B-(N-Me)A-D-R-P-C*-NH2] ({CH2CO}-FVSTT[Bip][NMeA][Bip][NMeA]DRPC-NH2; thioether N-13) — lower, 28%
- CC(C)[C@@H]1NC(=O)[C@H](Cc2ccccc2)NC(=O)CSC[C@@H](C(N)=O)NC(=O)[C@@H]2CCCN2C(=O)[C@H](C)NC(=O)[C@H](CC(N)=O)NC(=O)[C@H](C)N(C)C(=O)[C@H](Cc2ccc(Cl)cc2)NC(=O)[C@H](C)N(C)C(=O)[C@H](Cc2ccccc2)NC(=O)[C@H]([C@@H](C)O)NC(=O)[C@H]([C@@H](C)O)NC(=O)[C@H](C)NC1=O [Example 2-5, Ac*-F-V-A-T-T-F-(N-Me)A-(p-Cl)F-(N-Me)A-N-A-P-C*-NH2] ({CH2CO}-FVATTF[NMeA][Phe(4-Cl)][NMeA]NAPC-NH2; thioether N-13) — lower, 46%

same assay, conditions: TR-FRET; Human PCSK9 Alexa Fluor 647 and Human LDLR extracellular domain-Europium Kryptate

In the case of `C[C@@H]1NC(=O)[C@H](C)N(C)C(=O)[C@H](Cc2ccc(-c3ccccc3)cc2)NC(=O)[C@H](C)N(C)C(=O)[C@H](Cc2ccccc2)NC(=O)[C@H]([C@@H](C)O)NC(=O)[C@H]([C@@H](C)O)NC(=O)[C@H](CC(N)=O)NC(=O)[C@H](CCC(=O)O)NC(=O)[C@H](Cc2ccccc2)NC(=O)CSC[C@@H](C(=O)NCC(N)=O)NC(=O)[C@@H]2CCCN2C(=O)[C@H](CO)NC1=O` [Example 1-27, Ac*-F-E-N-T-T-F-(N-Me)A-B-(N-Me)A-A-S-P-C*-G-NH2] ({CH2CO}-FENTTF[NMeA][Bip][NMeA]ASPCG-NH2; thioether N-13), the IC50 is reported as 410 nM.
